Results reported in patent US8034574B2, “Screening method for prokinetic agent” (Astellas Pharma Inc., priority 2006, dated 2011).

Assays:
RIN14B cells [1] = test: Channel activity in RIN14B cells using calcium-sensitive fluorescent reagent (FLIPR); assay type: cell-based, rat; settings: siRNA-introduced RIN14B; allyl isothiocyanate 300 μM
Procedure: RIN14B cells (5×10^4 cells), wherein the expression of TRPA1 was confirmed in Example 10, were incubated in the presence of a calcium-sensitive fluorescent reagent (Fluo3-AM; DOJINDO) at 37° C. for 1 hour to thereby incorporate the calcium-sensitive fluorescent reagent in the cells, after which the cells were washed with physiological saline to remove the calcium-sensitive fluorescent reagent that had not been incorporated in the cells. To the cells obtained, physiological saline supplemented with allyl isothiocyanate, cinnamic aldehyde, or acrolein was added; the fluorescence emitted by the cells was measured over time. The above-described measurements were performed using an automated fluorescence detection apparatus (FLIPR; Molecular Device). […] Ruthenium Red was added concurrently and a measurement was performed to determine whether or not calcium inflow in the cells was be inhibited.

rat TRPA1 gene = test: Suppression of rat TRPA1 gene expression by siRNA in RIN14B cells (real time PCR); assay type: cell-based; settings: siRNA 10 nM, 2 days
Procedure: The expression of the TRPA1 gene in rat tissues, a rat EC cell fraction and RIN14B cells was analyzed by real time PCR using a sequence detector (PRISM7900; Applied Biosystems). With the first strand cDNA derived from rat tissue, rat EC cells or RIN14B cells, obtained in the aforementioned Example, as the template, using a fluorescent reagent (SYBR Green PCR Core Reagents Kit; Applied Biosystems), PCR was performed. The aforementioned PCR was performed using an oligonucleotide consisting of the base sequence shown by SEQ ID NO:13 as a sense primer, and an oligonucleotide consisting of the base sequence shown by SEQ ID NO:14 as an antisense primer; first, thermal denaturation was performed at 95° C. (10 minutes), after which a cycle consisting of heat treatment at 95° C. (15 seconds)/59° C. (1 minute) was repeated 45 times. Each primer is a sequence specific for a gene consisting of the base sequence shown by SEQ ID NO:5. […]
RIN14B cells were sown to a 60 mm Petri dish at 6×10^5 cells and cultured for 1 day. After various sequences of siRNA for rat TRPA1 (10 nM), designed using the siRNA design system siDirect (RNAi), were introduced using a transformation reagent (LIPOFECTAMINE2000; Invitrogen Japan K.K.), the RIN14B cells were further cultured for 2 days, and the expression level of the rat TRPA1 gene was measured. […]

RIN14B cells [2] = test: Serotonin secretion from RIN14B cells (immunoassay); assay type: cell-based, rat; settings: siRNA-introduced RIN14B; listed as #971 siRNA
Procedure: After RIN14B cells in culture in a Petri dish were detached using a PBS containing 1 mM EDTA, they were sown to a 96-well plate and cultured for 2 days. The medium used was RPMI1640 (Invitrogen Japan K.K.) supplemented with 10% fetal bovine serum (ICN), 100 U/ml penicillin, and 100 μg/ml streptomycin. After the cells were once washed with Hanks' Balanced Salt Solutions (HBSS, Invitrogen) supplemented with 0.1% BSA and 10 μM fluoxetine (TOCRIS), each TRPA1 activator, previously diluted/prepared with the above-described HBSS, was added, and the RIN14B cells were cultured at 37° C. in the presence of 5% CO2 for 20 minutes. After the cultivation, the cell supernatant was recovered, and stored under freezing. The serotonin content in the supernatant was measured using a commercially available serotonin immunoassay kit (Beckman).

Substance: #971: a rat TRPA1-specific siRNA (sense strand SEQ ID NO:15, antisense strand SEQ ID NO:16) (sense CUGGCAGACUACCUAAUUUCA; antisense AAAUUAGGUAGUCUGCCAGGU; listed as RNA, chemistry not given here)
- suppression of intracellular calcium inflow activity of allyl isothiocyanate (RIN14B cells [1]): 67.3%
- expression level of the rat TRPA1 gene (rat TRPA1 gene): a reduction in the expression level of the rat TRPA1 was observed
- serotonin secretion increasing activity of cinnamic aldehyde in siRNA-introduced RIN14B (RIN14B cells [2]): suppressed cinnamic aldehyde-induced serotonin release
